We go through one compound from article PMC11109052, “Metabolism characterization and toxicity of N-hydap, a marine candidate drug for lung cancer therapy by LC–MS method” (Natural Products and Bioprospecting, 2024).

One series deals with T1, UGT1A3 (Homo sapiens, UniProt P35503).
T1 construct: purchased Cypex (Scotland, UK)
Put plainly: Incubation with recombinant human UGT isoforms: UGT1A3. It is filed as in vitro ADME. Particulars: recombinant UGT 2 μg/mL. How it is done: Incubation of N-hydap (2.5 μM) with eight recombinant human CYP enzymes (CYP1A2, CYP2B6, CYP2C9, CYP2C19, CYP2D6, CYP3A4, CYP4A11 and CYP4F2) at three enzyme concentrations (2, 4, and 20 μg/mL) was conducted following the same procedure as described above for microsomes. Subsequently, incubation with N-hydap (1, 2.5, and 6 μM) and twelve recombinant human UGT isoforms (UGT1A1, UGT1A3, UGT1A4, UGT1A6, UGT1A7, UGT1A8, UGT1A9, UGT1A10, UGT2B4, UGT2B7, UGT2B15 and UGT2B17) was performed, with the enzyme concentration used at 2 μg/mL. All reactions were carried out in triplicate.

The subject of a further series is Cyp2b10. Put plainly: Real-time PCR mRNA level after 7 days gavage: Cyp2b10. Particulars: mice, 2, 5, 10 mg/kg p.o. 7 days. The format is in vivo. The method, then:
(§1) Mice were randomly divided into four groups, with eight animals in each group. The mice received oral pretreatment with N-hydap for 7 days at doses of 2, 5, and 10 mg/kg/day, which were considered as the low dose, medium dose, and high dose, respectively. Correspondingly, the control group received PBS. On the 8th day, the liver and kidneys were removed, and organs from eight mice per group were combined to prepare MLMs and MKMs using the detailed procedures above. Subsequently, we determined the activity of CYP and UGT enzymes by specific substrate metabolized with MLMs (0.5 mg/mL) and MKMs (0.2 mg/mL) in vitro. […] In the ex vivo experiments, the activity of enzymes was measured by quantifying the production of various metabolites (nM/mg protein/min). […] The measurements were performed using multiple reaction monitoring (MRM) transitions, which are specific mass spectrometry transitions used for quantification. […]
Total RNA from liver and kidney samples taken after 7 days of N-hydap gavage was extracted using the Animal Total RNA Isolation Kit (Foregene, Chengdu, Sichuan, China) following the manufacturer’s instructions. The concentrations of total RNA were determined by a nucleic acid concentration tester at 260/280 nm. […]

The test system of the next series is CYP3A4. Kind of series: Western blot protein level after 7 days gavage: CYP3A4. It is filed as in vivo. Particulars: mice, p.o. 7 days; liver and kidney (either tissue). The method, then:
as §1
After 7 days of N-hydap gavage, the liver and kidney tissues were lysed using RIPA buffer supplemented with a 1% protease inhibitor cocktail. […] Western blot signals were detected using an ECL chemiluminescence detection agent. The relative intensity of each protein band was scanned and quantified using Image J software.

For a further series, the system named is CYP2C19. Kind of series: DME activity ex vivo in MLMs and MKMs: CYP2C19 (4-OH-MP from MP). Also on record: species or system mice; key to CYP2C19 Enzymatic activity: ↑: up-regulation; ↓: down-regulation; –: no change. The method, then:
Mice were randomly divided into four groups, with eight animals in each group. The mice received oral pretreatment with N-hydap for 7 days at doses of 2, 5, and 10 mg/kg/day, which were considered as the low dose, medium dose, and high dose, respectively. Correspondingly, the control group received PBS. On the 8th day, the liver and kidneys were removed, and organs from eight mice per group were combined to prepare MLMs and MKMs using the detailed procedures above. Subsequently, we determined the activity of CYP and UGT enzymes by specific substrate metabolized with MLMs (0.5 mg/mL) and MKMs (0.2 mg/mL) in vitro. Specifically, the following selective substrates were used for the respective enzymes: PH (1 μM) for CYP1A2, DIC (1 μM) for CYP2C9, MP (90 μM) for CYP2C19, DM (1 μM) for CYP2D6, CZX (10 μM) for CYP2E1, Tes (1 μM) for CYP3A4, SN38 (1 μM) for UGT1A1, CACD (100 μM) for UGT1A3, Sero (20 μM) for UGT1A6, and Prop (1 μM) for UGT1A9. All substrates were dissolved in methanol or DMSO. The incubation procedure was carried out as mentioned above, and the reaction was terminated with VER (20 ng/mL) in ESI+ mode and CLP (200 ng/mL) in ESI− mode. In the ex vivo experiments, the activity of enzymes was measured by quantifying the production of various metabolites (nM/mg protein/min). The metabolites and their corresponding enzymes are as follows: APAP from PH, 4-OH-DIC from DIC, 4-OH-MP from MP, DXO from DM, 6-OH-CZX from CZX, 6-OH-Tes from Tes, SN38-G from SN38, CACD-G from CACD, Sero-G from Sero, Prop-G from Prop. The measurements were performed using multiple reaction monitoring (MRM) transitions, which are specific mass spectrometry transitions used for quantification. The optimized parameters for each metabolite, such as declustering potential and collision energy, were described in Supplementary Table 1. All experiments were conducted in triplicate, to ensure accuracy and reproducibility.

SMILES strings stand for the structures.

T1 sequence (P35503 29-534): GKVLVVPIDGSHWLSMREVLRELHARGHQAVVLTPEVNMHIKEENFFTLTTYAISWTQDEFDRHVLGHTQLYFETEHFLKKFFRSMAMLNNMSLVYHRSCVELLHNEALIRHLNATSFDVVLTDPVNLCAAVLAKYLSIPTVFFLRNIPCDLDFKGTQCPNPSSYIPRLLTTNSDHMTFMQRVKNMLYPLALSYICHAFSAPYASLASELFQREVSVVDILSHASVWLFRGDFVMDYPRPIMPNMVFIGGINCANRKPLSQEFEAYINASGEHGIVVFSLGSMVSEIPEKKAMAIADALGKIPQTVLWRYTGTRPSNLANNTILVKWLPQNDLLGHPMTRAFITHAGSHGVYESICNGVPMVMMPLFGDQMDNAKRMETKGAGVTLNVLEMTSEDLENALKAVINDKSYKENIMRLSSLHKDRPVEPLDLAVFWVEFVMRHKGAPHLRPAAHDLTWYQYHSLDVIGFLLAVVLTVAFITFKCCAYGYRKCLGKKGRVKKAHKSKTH

As to `CC1CCC2C(C=CC(C)C2C(=O)c2c(O)c(C3(O)CCC(O)C4OC43)cn(O)c2=O)C1` (stereo not shown) [N-hydap, N-Hydroxyapiosporamide], at UGT1A3, the “share of N-hydap glucuronidation by UGT1A3” value was “over 80%”. The “mRNA levels of Cyp2b10” value in the series with Cyp2b10 (kidneys) was “slight reduction”. The “decrease of mRNA levels of Cyp2b10” value with Cyp2b10 (liver) came out at 35%. In the series with CYP3A4, the “protein levels of CYP3A4” value was “no significant changes”. For the same compound, the “CYP2C19 Enzymatic activity” value with CYP2C19 (Kidney) was “–”; with CYP2C19 (Liver) it was “↓”. Moreover, the “reduction of formation rate of 4-OH-MP vs control” value with CYP2C19 (liver microsomes of mice pretreated 7 days p.o.) stood at 33%.
